Values after ≈ are worked out from the molar mass of the structure shown. “Also recorded” adds a separate entry of the source. Read-outs that look alike come from different tables or passages of the source. Numbered stars: 1 amine (or outer) side, 2 acyl side, 3 side chain; on linkers, the order of the positions; unused ones are H or OH. Square brackets hold non-standard residues; d marks the D form. Peptide text beside a SMILES is read from it. * marks the point of attachment. Diphenylacetyl = O=C(C(c1ccccc1)c1ccccc1)*; Phe(4-Me) = Cc1ccc(C[CH](N)C(=O)O)cc1; NMeβAla = CN(CCC(=O)[*:2])[*:1]; Cha = N[CH](CC1CCCCC1)C(=O)O; Chg = N[CH](C(=O)O)C1CCCCC1; X1 = C1CCC2(CC1)CCN(*)CC2; Dab = NCC[CH](N)C(=O)O; Bz = O=C(c1ccccc1)*
How the values were obtained:
[1] = tested on: pancreatic adenocarcinoma human cell lines (MPanc-96, HPAF-II, PA-TU-8902, SW1990, PA-TU 8988T, PANC-1); type: cell-based; conditions: for specificity cancer cells versus normal cells (cell viability): cancer cell lines versus hTERT-RPE, MTS
Method: (§1) Cells cultured in 10% FCS were treated with compound (I) in a dose range from 0 to 25 µM and incubated for 24 h, when cell viability was determined by MTS assay. Experiment was repeated 3 times. Differences were assessed using one-way ANOVA and Tukey Multiple Comparisons Test and considered significant when p≤0.05.
(§2) 10,000 cells in 50 μL of 10% FBS-containing medium, were cultured for 24 h and then treated with the drugs (50 μL final volume) for a further 24 h in each well of a 96-well plate (100 μL final volume). MTS viability assay (CellTiter 96® Aqueous One Solution Cell Proliferation Assay, Promega G3580) was performed following the manufacturer's specifications. The absorbance of each well was measured with a multimode plate reader (Spark, Tecan) at 490 nm. The percentage of cell viability was calculated by dividing the absorbance of each well by the average absorbance of the control wells (which had no significant deviation when Student's t-test was applied).
(§3) We next incubated IPR-473 at several concentrations with different cancer cell lines and a normal cell line (-hTERT-RPE cells). Cell viability was measured by a MTS cell proliferation assay. […] Cells were placed in a 96-well plate culture containing 10% FBS (Bilogical Industries)-containing medium. (10000 cell per well). These cells were then cultured for 24 hours and then treated with IPR-473 at concentrations of 10 μM, 15 μM, 20 μM and 25 μM for a further 24 hours incubation.
The different cell lines used included human pancreatic cancer cells MPANC-96, human pancreatic adenocarcinoma cells HPAF-II, human pancreatic grade II adenocarcinoma PA-TU, human pancreatic ductaladenocarcinoma SW1990, human pancreas adenocarcinoma 8988-T and human pancreatic ductal carcinoma PANC-1. Each of these comprises a pancreatic tumor cell line. The control as stated was hTERT-RPE cells and that are not cancerigenous.

[2] = tested on: Ras signaling pathway (Raf/ERK and PI3K/AKT); test: Western blot of RAS signaling pathways in EGF-stimulated serum starved hTERT-RPE cells; type: cell-based, human; conditions: 50 μM, 0.5% DMSO, 2 h before EGF 50 ng/mL 10 min
Method: (§4) Cells were seeded in a media containing 10% FBS for 24 hours and were serum starved (0.5%) for the next 24 hours. Afterwards, they were incubated with different concentrations of the compounds for 2 hours. A successive treatment for 10 minutes with EGF (50 ng/mL) (Sigma-Aldrich) was performed in order to activate cell signaling.
Proteins were resolved by SDS-PAGE and transferred onto PVDF membranes (Immobilon-P, Millipore). Non-specific binding of the antibodies was assessed by incubating the membranes for 1 hour at room temperature with a buffer composed of 20 mM Tris-HCl pH 7.5, 150 mM NaCl, 0.05% Tween 20 and 5% bovine serum albumin. Protein expression was determined by probing the blots overnight at 4° C. with the specified antibodies:anti-c-RAF (BD Transduction 610151, 1:500); anti-phospho-c-RAF S338 (Cell Signaling 9427, 1:500); anti-PI3Kp110a (Cell Signaling 4249, 1:1000); anti-AKT (Cell Signaling 9272, 1:1000); anti-phospho-AKT S473 (Cell Signaling 4060, 1:1000); anti-phospho-AKT Thr308 (Cell Signaling 4056, 1:1000); anti-p44/42 MAPK (ERK1/2) (Cell Signaling 9102, 1:2000); anti-phospho-p44/42 MAPK(ERK1/2) T202/Y204 (Cell Signaling 4370, 1:2000); anti-GAP120 (Santa Cruz SC-63, 1:200); anti-HA (Sigma-Aldrich H6908, 1:1000); or anti-α-tubulin (Sigma-Aldrich T9026, 1:2000). Next, after washing the membranes they were incubated with the corresponding HRP-coupled secondary antibodies (goat anti-rabbit BioRad 170-6515 or goat anti-mouse BioRad 170-6516, 1:3000) for 60 minutes at room temperature and washed again. Protein detection was performed by enhanced chemiluminescence (EZ-ECL, Biological Industries). Emitted light was captioned and quantified (ChemiDoc, BioRad).
For analysis of RAS signalling, cells were lysed in a buffer containing 67 mM Tris-HCl pH 6.8 and 2% SDS and then the samples were heated at 97° C. for 15 minutes. After this, the protein concentration of the lysates was assayed using the Lowry method. An aliquot of 15 μg of protein per sample was loaded onto the gels.
GAP120 detection was used as control.
To consider a peptidomimetic as a positive hit, it should inhibit the activity of the two protein cascades, and as a consequence the phosphorylation of the RAF (P-RAF), AKT (P-AKT) and ERK (P-ERK) should not be observed.

[3] = Solubility in water at 5% DMSO; type: physicochemical
Description: (§5) The methods used are well known and would be known to one of skill in the art. As a control, we evaluated the solubility in water which contained 5% DMSO to identify any possible issue related with a low solubility. Data are expressed as the mean±SD.

PAMPA assay = type: in vitro ADME; conditions: for Pe / Retention %: mean±SD
Description: As part of our analysis, we evaluated IP-14-01, IP-14-03 and IP-14-08 and their biophysical properties by studying them using a solution of 5% DMSO in water. We conducted a permeability through biological barriers (PAMPA assay) and their internalization in SH-SY5Y cells.
as §5

[4] = Solubility in PBS with 15% β-cyclodextrin; type: physicochemical; conditions: 1 mM, 24 hours agitation, supernatant by HPLC; mean±SD
Method: xxxxx Furthermore, an additional effort was done to reevaluate those peptidomimetics from the first generation that were not soluble in the in vitro assay conditions or formed aggregates as described above when incubated with the RPE cells.
We then put these peptidomimetics under constant agitation for 24 hours. […] Data are expressed as the mean±SD.

hTERT-RPE cells = type: cell-based, human; conditions: at the concentrations of the tumor cell IC50 (approximately 20 μM), 24 h, MTS
Method: as §1, §2
as §3, with “These cells were then cultured for 24 hours and then treated with IPR-473 at concentrations of 10 μM, 15 μM, 20 μM and 25 μM for a further 24 hours incubation.” left out

[5] = target: T1, HA-KRASG12V with C-RAF or with PI3K (Homo sapiens, UniProt P01116, G12V); test: Co-immunoprecipitation of HA-KRASG12V with C-RAF or PI3K in Hela cells; type: cell-based; conditions: 100 µM for 2 h, EGF 10 min, starved Hela cells expressing HA-KRASG12V
T1 construct: expressed in transfected cells; host or cells: HeLa cells, Lipofectamine 2000, plasmid pEF-HA-KRASG12V
Method: Immunoprecipitation was performed with anti-HA antibodies and Western blot of the bound (BO) and input (IN) fractions with anti-p110αPI3K and anti-C-RAF. Experiments were repeated at least three times.
as §4, with “h” for “hours”, “starved” for “starved (0.5%)”, “h.” for “hours.”, “min” for “minutes”, “ng/mL; Sigma-Aldrich)” for “ng/mL) (Sigma-Aldrich)”
HeLa cells were transfected with pEF-HA-KRASG12V plasmid, obtained as described in C. Lopez-Alcala et al. (“Identification of essential interacting elements in K-Ras/calmodulin binding and its role in K-Ras localization.”; J. Biol. Chem. 2008; April 18; 283(16):10621-31. doi: 10.1074/jbc.M706238200. Epub 2008 Jan. 8. PMID: 18182391). Lipofectamine®2000 Transfection Reagent (Invitrogen) was used as a transfection method following the manufacturer's instructions.
Cells were transfected with pEF-HA-KRASG12V plasmid for 24 h and starved for the next 24 h before treatment with the peptides and EGF. Next, an IP with anti-HA antibody crosslinked to agarose beads was performed. […]

Compound: CC(NC(=O)C(CN)NC(=O)CCN(C)C(=O)C(Cc1ccc(-c2ccccc2)cc1)NC(=O)C(c1ccccc1)c1ccccc1)C(=O)N1CCCC1 (stereo not shown) [IP-14-01]
- specificity cancer cells versus normal cells (cell viability) [1]: did not show cell-line specificity
- Inhibition of RAS-effectors protein cascades (P-RAF, P-AKT, P-ERK) by Western blot [2]: able to inhibit the two RAS-effectors protein cascades; also recorded: most potent inhibitor
- Solubility (in words) [3]: good solubility
- solubility [3]: 1333 ± 13 µM (≈ 974 µg/mL)
- Transport % (PAMPA assay): 0%
- Pe (PAMPA assay): 5.6e-10 ± 3.1e-10 cm/s
- Retention % (PAMPA assay): 55.7 ± 7.1%

Compound: NCCCCC(NC(=O)C(Cc1ccccc1)NC(=O)C(CC1CCCC1)NC(=O)c1c2ccccc2cc2ccccc12)C(=O)N1CCCC1 (stereo not shown) [IP-14-02]
- Inhibition of RAS-effectors protein cascades (P-RAF, P-AKT, P-ERK) by Western blot [2]: able to inhibit the RAF and AKT but not ERK

Compound: CC(NC(=O)C(NC(=O)CCN(C)C(=O)C(CN)NC(=O)C(c1ccccc1)c1ccccc1)C1CCCCC1)C(=O)N1CCC2(CCCCC2)CC1 (stereo not shown) [IP-14-03]
- Inhibition of RAS-effectors protein cascades (P-RAF, P-AKT, P-ERK) by Western blot [2]: able to inhibit the two RAS-effectors protein cascades
- Solubility (in words) [3]: good solubility
- solubility [3]: 549 ± 90 µM (≈ 400 µg/mL)
- Transport % (PAMPA assay): 0%
- Pe (PAMPA assay): 1.6e-09 ± 3.6e-10 cm/s
- Retention % (PAMPA assay): 77.9 ± 2.4%

Compound: CC(C)CC(NC(=O)CCCN(C)C(=O)C(CCCN)NC(=O)C(Cc1cccc2ccccc12)NC(=O)c1c2ccccc2cc2ccccc12)C(=O)N1CCC2(CCCCC2)CC1 (stereo not shown) [IP-14-04]
- Conc. in PBS β-cyclodextrin 15% [4]: 780 ± 30 µM

Compound: CC(C)CC(NC(=O)COc1ccc(C(C)(C)C)cc1)C(=O)NC(Cc1cccc2ccccc12)C(=O)NC(CCCCN)C(=O)N1CCCCC1 (stereo not shown) [IP-14-05]
- Conc. in PBS β-cyclodextrin 15% [4]: 849 ± 43 µM

Compound: CCC(C)C(NC(=O)C(c1ccccc1)c1ccccc1)C(=O)NC(CCc1ccccc1)C(=O)NC(CCCCN)C(=O)N1CCC2(CCCCC2)CC1 (stereo not shown) [IP-14-07]
- Conc. in PBS β-cyclodextrin 15% [4]: 766 ± 19 µM

Compound: CC(C)CC(NC(=O)C(Cc1ccccc1)NC(=O)C1CCCN1C(=O)C(CCN)NC(=O)c1ccccc1)C(=O)N1CCC2(CCCCC2)CC1 (stereo not shown) [IP-14-08] (Bz-[Dab]PFL-X1; configuration not given here)
- Inhibition of RAS-effectors protein cascades (P-RAF, P-AKT, P-ERK) by Western blot [2]: able to inhibit the two RAS-effectors protein cascades
- Solubility (in words) ([3]; water at 5% DMSO): good solubility
- solubility ([3]; water at 5% DMSO, mean±SD, read-out: Solubility): 1320 ± 22 µM (≈ 942 µg/mL)
- Transport % (PAMPA assay): 0%
- Pe (PAMPA assay): 0 cm/s
- Retention % (PAMPA assay): 97.6 ± 5.0%

Compound: CC(C)CC(NC(=O)COc1ccc(C(C)(C)C)cc1)C(=O)NC(Cc1cccc2ccccc12)C(=O)NC(CN)C(=O)N1CCC2(CCCCC2)CC1 (stereo not shown) [IP-14-09]
- Conc. in PBS β-cyclodextrin 15% [4]: 949 ± 8 µM

Compound: Cc1ccc(CC(NC(=O)C(c2ccccc2)c2ccccc2)C(=O)N(C)CCC(=O)NC(CC2CCCCC2)C(=O)NC(C(=O)N2CCCC2C(N)=O)C2CCCCC2)cc1 (stereo not shown) [IPR-471] (Diphenylacetyl-[Phe(4-Me)][NMeβAla][Cha][Chg]P-NH2; configuration not given here)
- Inhibition of RAS-effectors protein cascades (P-RAF, P-AKT, P-ERK) by Western blot [2]: not better than IP-14-01

Compound: CC(C)CC(NC(=O)C(CN)N(C)C(=O)CCN(C)C(=O)C(Cc1ccc(-c2ccccc2)cc1)NC(=O)C(c1ccccc1)c1ccccc1)C(=O)N1CCCC1 (stereo not shown) [IPR-473]
- specificity cancer cells versus normal cells (cell viability) [1]: high specificity for pancreatic cancer cell lines
- Inhibition of RAS-effectors protein cascades (P-RAF, P-AKT, P-ERK) by Western blot [2]: able to inhibit all the two different protein cascades (RAF/ERK and PI3K/AKT) more effectively than even IP-14-01; also recorded: highest degree of inhibition of the RAS effectors

Compound: CC(O)C(NC(=O)CCN(C)C(=O)C(Cc1ccc(-c2ccccc2)cc1)NC(=O)C(c1ccccc1)c1ccccc1)C(=O)NC(C(=O)N1CCCC1)C1CCCCC1 (stereo not shown) [IPR-474]
- Inhibition of RAS-effectors protein cascades (P-RAF, P-AKT, P-ERK) by Western blot [2]: not better than IP-14-01

Compound: CC(C)C[C@H](NC(=O)[C@H](CN)N(C)C(=O)CCN(C)C(=O)[C@H](Cc1ccc(-c2ccccc2)cc1)NC(=O)C(c1ccccc1)c1ccccc1)C(=O)N1CCCC1 [compound of formula (I), (S)-N-(3-(((S)-3-amino-1-((S)-4-methyl-1-oxo-1-(pyrrolidin-1-yl)pentan-2-ylamino)-1-oxopropan-2-yl)(methyl)amino)-3-oxopropyl)-3-(biphenyl-4-yl)-2-(2,2-diphenylacetamido)-N-methylpropanamide]
- IC50 ([1]; 24 h): ~20 µM
- normal cells affected (hTERT-RPE cells): less than 5%
- PI3K and c-RAF1 interaction with KRAS (co-immunoprecipitation) [5]: reduced PI3K and c-RAF1 interaction with KRAS
